Numbering of substitutions follows the chain as printed. Several values for one entry are separate records, joined by “and”; a condition that tells them apart may be missing. Identical values can stand only once. Like-named read-outs stand apart in the source and are kept apart here. Where a SMILES comes first, the peptide text is derived from it. Where no end group is shown, it is not given here. The star is where a group is joined. For = O=C*
Columns and labels:
FPR1 R205A [1] = molecular target: T1, FPR1 R205A (Homo sapiens, UniProt P21462, R205A); assay: cAMP inhibition assay, FPR1 R205A; format: cell-based; design: key to cAMP response, source data of Fig. 5c: % of maximal cAMP level for each construct; details: for cAMP response, source data of Fig. 5c: FPR1 R205A, single replicate readings
T1 construct: expressed in transfected cells; host or cells: HeLa cells, transient, pcDNA3.1(+)
T1 sequence (P21462 1-350 R205A): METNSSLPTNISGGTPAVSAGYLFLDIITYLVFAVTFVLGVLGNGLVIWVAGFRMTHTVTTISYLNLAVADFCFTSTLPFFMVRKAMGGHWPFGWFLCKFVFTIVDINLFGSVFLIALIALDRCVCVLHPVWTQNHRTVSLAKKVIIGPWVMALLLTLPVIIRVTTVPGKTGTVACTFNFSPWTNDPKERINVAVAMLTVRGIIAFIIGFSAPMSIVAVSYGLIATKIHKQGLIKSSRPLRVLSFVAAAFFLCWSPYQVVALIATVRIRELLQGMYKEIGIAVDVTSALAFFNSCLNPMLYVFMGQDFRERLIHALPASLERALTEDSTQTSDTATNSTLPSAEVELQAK
Text: (§1) FPR1 cDNA in the pcDNA3.1(+) vector (Invitrogen) was used as a template for gene manipulation. The mutations of FPR1 were introduced in the receptor through overlap extension PCR with elaborately designed primers (GENEWIZ, Suzhou, China). The sequences of the primers were listed in Supplementary Table 2. Two fragments of FPR1 (separated at mutated positions) were assembled into pre-cut pcDNA3.1(+) vectors with the ClonExpress Ultra One Step Cloning Kit (Vazyme Biotech, C115). Plasmids with FPR1 mutations were confirmed by DNA sequencing (GENEWIZ).
(§2) For functional studies, FPR1 and its mutants were expressed in HeLa cells as above. The cells were resuspended in HBSS buffer plus 5 mM HEPES, 0.1% BSA (w/v) and 0.5 mM 3-isobutyl-1-methylxanthine and seeded into 384-well plates. […] AG-14 was synthesized by Sungening Biotechnology (Shenzhen, China). Different concentrations of the ligands were prepared plus a fixed dose of forskolin with the buffer above. […] Intracellular cAMP levels were measured with the LANCE Ultra cAMP kit (PerkinElmer, TRF0263) following the manufacturer’s instructions. […] Intracellular cAMP levels were calculated according to the TR-FRET signals of the samples and cAMP standards.
(§3) The data were analyzed with Prism 6.0 (GraphPad, San Diego, CA). For dose-response analysis, the curves were plotted with the log[agonist] vs. response equation (three parameters) in the software. Data points were presented as the percentages (mean ± SEM) of the maximal cAMP level for each construct, from at least three independent experiments, as indicated in figure legends. The pEC50 values were the negative logarithm of the EC50 values, which were obtained from the dose-response curves. For cell surface expression, data points were presented as the percentages (mean ± SEM) of the flow cytometry fluorescence signals of WT FPR1. For statistical comparison, a p-value of 0.05 or lower is considered statistically significant.

FPR1 F291A = molecular target: T2, FPR1 F291A (Homo sapiens, UniProt P21462, F291A); assay: cAMP inhibition assay, FPR1 F291A; format: cell-based; details: FPR1 F291A, single replicate readings
T2 construct: expressed in transfected cells; host or cells: HeLa cells, transient, pcDNA3.1(+)
T2 sequence (P21462 1-350 F291A): T1 sequence (P21462 1-350 R205A) with A205R, F291A
Text: as §1, §2, §3

FPR1 R84A = molecular target: T3, FPR1 R84A (Homo sapiens, UniProt P21462, R84A); assay: cAMP inhibition assay, FPR1 R84A; format: cell-based; design: key to cAMP response, source data of Fig. 5c: % of maximal cAMP level for each construct
T3 construct: expressed in transfected cells; host or cells: HeLa cells, transient, pcDNA3.1(+)
T3 sequence (P21462 1-350 R84A): T1 sequence (P21462 1-350 R205A) with R84A, A205R
Text: as §1, §2, §3

FPR1 R201A [2] = molecular target: T4, FPR1 R201A (Homo sapiens, UniProt P21462, R201A); assay: cAMP inhibition assay, FPR1 R201A; format: cell-based
T4 construct: expressed in transfected cells; host or cells: HeLa cells, transient, pcDNA3.1(+)
T4 sequence (P21462 1-350 R201A): T1 sequence (P21462 1-350 R205A) with R201A, A205R
Text: as §1
as §2, with “China).” for “China). Different concentrations of the ligands were prepared plus a fixed dose of forskolin with the buffer above.”
(§4) The data were analyzed with Prism 6.0 (GraphPad, San Diego, CA). […] For cell surface expression, data points were presented as the percentages (mean ± SEM) of the flow cytometry fluorescence signals of WT FPR1. […]

FPR1 WT = molecular target: T5, FPR1 WT (Homo sapiens, UniProt P21462); assay: cAMP inhibition assay, WT FPR1; format: cell-based
T5 construct: expressed in transfected cells; host or cells: HeLa cells, transient, pcDNA3.1(+)
T5 sequence (P21462 1-350): T1 sequence (P21462 1-350 R205A) with A205R
Text: as §1
as §2, with “China).” for “China). Different concentrations of the ligands were prepared plus a fixed dose of forskolin with the buffer above.”
as §4

[3] = molecular target: T6, WT FPR1 expressed in HeLa cells (human, UniProt P21462 1-350)
T6 sequence (looked up): T1 sequence (P21462 1-350 R205A) with A205R

[4] = molecular target: T6, WT FPR1 expressed in HeLa cells; assay: cell-based or functional assay
FPR1 R201A [5] = molecular target: T7, FPR1 R201A (human, UniProt P21462 1-350, R201A); assay: cell-based or functional assay
T7 sequence (looked up): T1 sequence (P21462 1-350 R205A) with R201A, A205R

FPR1 R205A [6] = molecular target: T8, FPR1 R205A (human, UniProt P21462 1-350, R205A); assay: cell-based or functional assay
T8 sequence (looked up): T1 sequence (P21462 1-350 R205A)

COc1cc(C=NNC(=O)c2ccc3c(c2)OCO3)ccc1OCc1ccccc1 [Fig. 5c]
cAMP response, source data of Fig. 5c (FPR1 R205A [1]; Log[M] -4.3): 31.8 and 48.0 and 38.0 and 26.4 and 16.2 and 78.8
cAMP response, source data of Fig. 5c (FPR1 R205A [1]; Log[M] -5.0): 58.1 and 43.9 and 27.8 and 37.0 and 34.2 and 45.7
cAMP response, source data of Fig. 5c (FPR1 R205A [1]; Log[M] -5.7): 35.5 and 68.3 and 63.8 and 45.2 and 48.0 and 85.4
cAMP response, source data of Fig. 5c (FPR1 R205A [1]; Log[M] -6.4): 69.2 and 71.8 and 39.5 and 113.9 and 150.2 and 118.4
cAMP response, source data of Fig. 5c (FPR1 R205A [1]; Log[M] -7.1): 78.9 and 109.8 and 60.3 and 84.0 and 71.2 and 109.6
cAMP response, source data of Fig. 5c (FPR1 R205A [1]; Log[M] -7.8): 116.3 and 101.9 and 108.0 and 144.2 and 102.7 and 124.3
cAMP response, source data of Fig. 5c (FPR1 R205A [1]; Log[M] -8.5): 91.9 and 89.9 and 58.5 and 89.3 and 105.1 and 67.8
cAMP response, source data of Fig. 5c (FPR1 F291A; Log[M] -4.3): 33.9 and 34.1 and 26.7 and 28.4 and 24.2 and 31.1
cAMP response, source data of Fig. 5c (FPR1 F291A; Log[M] -5.0): 45.9 and 38.0 and 28.1 and 39.1 and 42.3 and 29.9
cAMP response, source data of Fig. 5c (FPR1 F291A; Log[M] -5.7): 66.9 and 58.1 and 74.7 and 72.6
cAMP response, source data of Fig. 5c (FPR1 R84A; Log[M] -4.3, single replicate readings): 37.2 and 21.4 and -4.8 and 34.9 and 32.8 and 41.9
cAMP response, source data of Fig. 5c (FPR1 R84A; Log[M] -5.0, single replicate readings): 14.6 and -24.6 and 16.2 and 33.5 and 20.2 and 31.4
cAMP response, source data of Fig. 5c (FPR1 R84A; Log[M] -5.7, single replicate readings): 49.5 and 79.5 and 66.2 and 55.1 and 52.2 and 52.7
cAMP response, source data of Fig. 5c (FPR1 R84A; Log[M] -6.4, single replicate readings): 79.9 and 58.8 and 61.6 and 91.8 and 112.7 and 81.8
cAMP response, source data of Fig. 5c (FPR1 R84A; Log[M] -7.1, single replicate readings): 135.9 and 91.7 and 83.9 and 115.6 and 133.7 and 94.7
cAMP response, source data of Fig. 5c (FPR1 R84A; Log[M] -7.8, single replicate readings): 106.7 and 82.2 and 108.6 and 111.9 and 96.0 and 84.6
cAMP response, source data of Fig. 5c (FPR1 R84A; Log[M] -8.5, single replicate readings): 91.1 and 94.4 and 114.8 and 80.2 and 111.9 and 117.6

CC[C@H](C)[C@H](NC(=O)[C@H](CCSC)NC=O)C(=O)N[C@@H](Cc1ccccc1)C(=O)N[C@@H](CC(C)C)C(=O)O [fMIFL, fMet-Ile-Phe-Leu] (For-MIFL-OH)
EC50 (FPR1 R201A [2]): 6.31 nM
EC50 (FPR1 R205A [1]): 2.51 nM
EC50 (FPR1 WT): 0.0631 nM

WKYMVm (peptide)
pEC50 of inhibition of forskolin-elevated cAMP, transfected HeLa cells [3]: 8.4

For-MIFL [fMet-Ile-Phe-Leu (fMIFL)]
pEC50 of inhibition of forskolin-elevated cAMP, transfected HeLa cells [4]: 10.2
pEC50 of inhibition of forskolin-elevated cAMP, transfected HeLa cells (FPR1 R201A [5]): 8.2
pEC50 of inhibition of forskolin-elevated cAMP, transfected HeLa cells (FPR1 R205A [6]): 8.6

From publication PMC9445081, “Structural basis for recognition of N-formyl peptides as pathogen-associated molecular patterns” (Nature Communications, 2022)
